Data taken from US4067997A, “Synergistic microbecidal composition and method” (priority 1976, dated 1978).

What was measured:
Format in all cases: cell-based
[1] = 60 minute reading, colony forming units (Examples VIII, X, XII); conditions: Table 18; base line 2.2 × 10^6CFU
Procedure: The results of this experiment are recorded in the 60 minute reading.

[2] = test system: nine gram-positive organisms and the yeast/fungus Candida; experiment: MIC, broth dilution, over all organisms (Examples I/II); conditions: all except streptococcus Group D; from essentially as active up to
Procedure: In order to establish comparative bactericidal and fungicidal results with homologous fatty acids, a series of experiments was performed with thirty straight-chain fatty acids and derivatives thereof. Eight different gram-negative and twelve different gram-positive organisms, representing a very broad spectrum of organisms, were used in these experiments including the fungus Candida (a yeast). Additionally, fatty acids were chosen to show the effects of saturation versus unsaturation, in the fatty acid claim. Standard solutions of the fatty acids and their derivatives were prepared by first dissolving the weighed compounds in 1 to 2 ml of 95% ethanol and immediately pouring this solution into 200 ml of Tripticase Soy Broth. These lipid compounds which are insoluble in water and broth precipitated into very small crystals or droplets. The tubes containing the suspension were warmed to approximately 70° C and were then placed in an ultrasonic tank for further solubilization of the lipid derivatives.
Standard solutions (or suspensions) at 1,000 μg/ml were twofold serially diluted with additional broth to a concentration of 125 μg/ml. A 4-ml amount of each dilution was then quickly, and with constant agitation, dispensed into appropriately labeled screw-capped glass tubes (16 by 125 mm). The tubes were sterilized with steam at 15 psi for 15 minutes. After sterilization, all tubes were cooled and incubated overnight at 35° C to insure sterility.
All compounds were compared on a molar (micromoles/milliliter) rather than on a mass basis. In the following lists of organisms used, those followed by a parenthetical number are registered with the American Type Culture Collection (ATCC); the remainder were isolates from Providence Hospital or Northland Laboratory.
Staphylococcus aureus, S. epidermidis, beta-hemolytic streptococci (Group A and non-group A), group D streptococcus, Bacillus subtilis (6051), Sarcina lutea (9431), Micrococcus sp., Candida albicans, Nocardia asteroids (3308), Corynebacterium sp. (10700), and pneumococcus (63001).
One drop (0.04 ± 0.01 ml) of an 18-hr broth culture containing 10^7 and 10^9 organisms/ml was added to each dilution of the test compound, as well as to a tube of plain broth which served as the positive control. After inoculation, the contents of each tube were well mixed, and the tubes were incubated at 35° C in a 5% carbon dioxide + […] atmosphere.
The MIC is defined as the lowest concentration of compound at which no […] evidence of growth was observed when turbidity of the inoculated broth dilutions was compared with control tubes. […] Only a one-tube difference between the bactericidal and bacteriostatic concentrations was normally observed.
Table 5 presents a comparison of the C10 and C12 free acids and their glyceryl derivatives, and Table 6 gives the corresponding ranges of activity.
Standard solutions (1000 μg/ml) of three fatty acids and polyglycerol esters thereof were prepared as described in Example I. Also sucrose esters were prepared by transferring the weighed compounds (0.2 gm. dissolved in 1 ml absolute methanol) into 200 ml of sterile Trypticase Soy Broth (TSB). These standard solutions (1000 μg/ml) were twofold serially diluted with additional sterile broth to a concentration of 125 μg/ml. A 3.8 aliquot of each dilution was asceptically delivered into sterile screw-capped culture tubes. All tubes were incubated overnight at 36° C to insure sterility. The microorganisms used in this example were the same as those used in Example I.
The inoculum, 0.05 ml of an 13-24 hour TSB culture (approximately 10^9 organisms/ml) was asceptically delivered into all dilutions of the compounds, mixed well, and incubated at 36° C. […]

[3] = test system: Streptococcus pyogenes; experiment: MIC on mass basis (Example V procedure)
Procedure: (§1) The essential procedure of Example I was followed with a series of phenolic compounds, with the exception that the test method was conducted on a mass (μg/ml) basis rather than a molecular (mol/ml) basis of the foregoing tests, since the long established phenol-coeffecient test is on a mass rather than molecular basis. Additionally, a different but closely related group of organisms were used in this test, in order to give a complete representative span on gram-negative, gram-positive and fungus organisms. Additionally, the phenolic derivatives chosen for test purposes include a number of derivatives which are presently accepted by the FDA as food-grade phenolic microbicides.

[4] = test system: Streptococcus faecalis (Group D); experiment: MIC on mass basis (Example V procedure)
Procedure: as §1

[5] = test system: Corynebacterium sp.; experiment: MIC on mass basis (Example V procedure)
Procedure: as §1

CCCCCCCCCCCC(=O)OCC(O)CO (centres unmarked) [GML, glycerol mono-laurin]
≤ 5.5 times: Activity of mono-laurin relative to mono-capric [2]
9.7 × 10^5 CFU: 60 Minute Reading [1]
> 10,000 μg/ml: MIC of GML ([4]; Table 17, EDTA 0) | MIC of GML ([4]; Table 17, EDTA 125) | MIC of GML ([4]; Table 17, EDTA 250) | MIC of GML ([4]; Table 17, EDTA 500)
> 1,000: MIC ([4]; Table 16, Streptococcus faecalis (Group D), no unit in table)
< 10 µg/mL: MIC of GML ([3]; Table 17, EDTA 0) | MIC of GML ([3]; Table 17, EDTA 125) | MIC of GML ([3]; Table 17, EDTA 250) | MIC of GML ([3]; Table 17, EDTA 500) | MIC of GML ([3]; Table 17, EDTA 1,000) | MIC of GML ([3]; Table 17, EDTA 5,000) | MIC of GML ([3]; Table 17, EDTA 10,000) | MIC of GML ([4]; Table 17, EDTA 5,000) | MIC of GML ([4]; Table 17, EDTA 10,000) | MIC of GML ([5]; Table 17, EDTA 0) | MIC of GML ([5]; Table 17, EDTA 125) | MIC of GML ([5]; Table 17, EDTA 250) | MIC of GML ([5]; Table 17, EDTA 500) | MIC of GML ([5]; Table 17, EDTA 1,000) | MIC of GML ([5]; Table 17, EDTA 5,000) | MIC of GML ([5]; Table 17, EDTA 10,000)
1,000 μg/ml: MIC of GML ([4]; Table 17, EDTA 1,000)
10: MIC ([3]; Table 16, Streptococcus pyogenes, no unit in table) | MIC ([5]; Table 16, Corynebacterium sp., no unit in table)
